According to paper PMC8847695 (Frontiers in Chemistry, 2022):

Legend:
Format in all cases: binding
Conditions in all cases: 1 = hit, 0 = no hit
AAK1 (121-471) = AAK1 (121-471) (Homo sapiens, UniProt Q2M2I8); assay: STD-NMR fragment screening, AAK1
Procedure: (§1) All fragments were stored at −20°C as solids in argon flushed glass bottles. For NMR screening, fragments were weighed and dissolved in DMSO-d6 to a stock concentration of 300 mM. Mother plates were prepared with a 100 mM concentration. From these plates, daughter plates were prepared with the fragments mixed in the plates to a concentration of 50 mM for each fragment. Daughter plates were opened a maximum of eight times. The plates were argon flushed and sealed with a HT121TS (HTA) and Foil Heat Seal (Biozym).
(§2) For long time measurements, like the protein ^1H NMR spectrum, the buffer exchange was performed twice to reduce residual buffer peaks. All experiments were performed on a Bruker Avance III HDX 700 instrument, equipped with a 5 mm Prodigy TCI cryo-probehead. For every protein, a standard ^1H NMR experiment with 1 k scans and water suppression through presaturation was performed. […] The on-resonance frequency, which was determined from the ^1H NMR spectra of the protein, was between 0.5 and 0.6 ppm; 40 ppm was used as the off-resonance frequency. For an interleaved acquisition of the on- and off-resonance, a pseudo-2D scheme was applied. The saturation was done by Gaussian pulses with a length of 50 ms and 60 dB of attenuation, with an interpulse delay of 1 ms leading to an excitation bandwidth of about 42 Hz. The screening was done with 16 scans of on- and off-resonance scans each, with a 3 s saturation time. The samples contained final concentrations of 20 µM protein, 10% (^V/V) DMSO-d6, and 1 mM of each of the two fragments. A ^1H-NMR experiment was performed for each compound to act as a reference spectrum in the STD experiments. All NMR experiments were carried out at 25°C.
(§3) Fifteen of these compounds contain the same halogen twice. No compound bears mixtures of different halogen atoms. Four proteins (AAK1, CAMK1G, IDO1, and DOT1L) were screened against this HEFLib using STD-NMR. A fragment was considered a hit if the peak intensity in the difference spectrum was three times higher than the local background noise. […] Chemical compatibility and peak complementarity were assured for these mixtures. Samples containing more than two fragments were avoided to minimize the possible target competition and to decrease the risk of fragment interactions. […] The ^1H reference NMR spectrum of the mixture is shown in red for comparison. […] As fragment mixtures can lead to competitive effects between their fragments, it is not advised to use the quantification of peak mixtures for hit ranking.

CAMK1G (1-320) = molecular target: T1, CAMK1G (1-320) (Homo sapiens, UniProt Q96NX5); assay: STD-NMR fragment screening, CAMK1G
T1 construct: made in house; host or cells: E. coli BL21 (DE3) pLysS
T1 sequence (Q96NX5 1-320): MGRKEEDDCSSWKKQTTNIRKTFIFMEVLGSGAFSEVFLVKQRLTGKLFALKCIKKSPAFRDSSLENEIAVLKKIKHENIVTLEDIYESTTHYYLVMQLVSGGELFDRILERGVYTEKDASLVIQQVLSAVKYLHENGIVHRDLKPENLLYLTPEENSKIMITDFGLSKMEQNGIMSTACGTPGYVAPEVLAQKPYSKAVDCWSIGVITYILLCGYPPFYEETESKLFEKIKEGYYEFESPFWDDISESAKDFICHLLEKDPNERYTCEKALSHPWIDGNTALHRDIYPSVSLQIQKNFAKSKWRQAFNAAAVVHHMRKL
Procedure: as §1, §2, §3

IDO1 (1-435) = molecular target: T2, IDO1 (1-435) (Homo sapiens, UniProt P14902); assay: STD-NMR fragment screening, IDO1
T2 construct: His-tag of pET15b with TEV site (thrombin site replaced) (cleaved yes); made in house; host or cells: E. coli Rosetta 2 (DE3) pLysS
T2 sequence (P14902 whole entry, the tested form may be a part): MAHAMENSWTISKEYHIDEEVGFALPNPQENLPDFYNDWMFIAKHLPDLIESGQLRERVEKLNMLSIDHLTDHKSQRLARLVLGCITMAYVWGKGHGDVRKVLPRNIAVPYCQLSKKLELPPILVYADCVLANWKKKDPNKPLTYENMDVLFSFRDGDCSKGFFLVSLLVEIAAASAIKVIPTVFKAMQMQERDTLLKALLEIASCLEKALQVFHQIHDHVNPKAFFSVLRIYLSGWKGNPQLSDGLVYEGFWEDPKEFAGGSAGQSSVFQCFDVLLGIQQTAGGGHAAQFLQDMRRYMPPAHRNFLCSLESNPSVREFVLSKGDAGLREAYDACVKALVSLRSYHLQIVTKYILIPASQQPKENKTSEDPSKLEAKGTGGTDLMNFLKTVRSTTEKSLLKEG
Procedure: as §1, §2, §3

DOT1L (1-416) = molecular target: T3, DOT1L (1-416) (Homo sapiens, UniProt Q8TEK3); assay: STD-NMR fragment screening, DOT1L
T3 construct: made in house; host or cells: E. coli BL21 (DE3) pLysS
T3 sequence (Q8TEK3 1-416): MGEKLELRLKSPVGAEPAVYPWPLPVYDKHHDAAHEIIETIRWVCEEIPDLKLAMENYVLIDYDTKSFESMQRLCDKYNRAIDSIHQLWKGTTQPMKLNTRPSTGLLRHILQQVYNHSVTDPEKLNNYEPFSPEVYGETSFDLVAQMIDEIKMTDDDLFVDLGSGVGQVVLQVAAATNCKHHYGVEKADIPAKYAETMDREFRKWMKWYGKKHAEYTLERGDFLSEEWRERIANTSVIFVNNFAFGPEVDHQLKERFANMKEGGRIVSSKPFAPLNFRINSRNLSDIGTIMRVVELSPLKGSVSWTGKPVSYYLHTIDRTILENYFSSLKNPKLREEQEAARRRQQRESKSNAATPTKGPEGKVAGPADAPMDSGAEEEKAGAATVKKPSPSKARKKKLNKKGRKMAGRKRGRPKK
Procedure: as §1, §2, §3

Sequence of AAK1 (121-471) (Q2M2I8 46-315 limits assumed): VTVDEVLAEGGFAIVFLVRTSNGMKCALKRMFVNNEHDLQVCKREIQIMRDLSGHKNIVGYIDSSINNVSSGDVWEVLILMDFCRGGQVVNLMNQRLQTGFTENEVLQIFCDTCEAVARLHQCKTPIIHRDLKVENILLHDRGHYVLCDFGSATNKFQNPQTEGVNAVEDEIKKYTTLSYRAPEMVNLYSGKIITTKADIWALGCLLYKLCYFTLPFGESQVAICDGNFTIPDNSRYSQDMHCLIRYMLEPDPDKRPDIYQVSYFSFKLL

| Compound | AAK1 (STD-NMR hit flag) (AAK1 (121-471)) | CAMK1G (STD-NMR hit flag) (CAMK1G (1-320)) | IDO1 (STD-NMR hit flag) (IDO1 (1-435)) | DOT1L (STD-NMR hit flag) (DOT1L (1-416)) |
| --- | --- | --- | --- | --- |
| Cn1nc(Br)nc1NN [Fragment B02290120] | 0 | 1 | 0 | 1 |
| Clc1ccc(CN2CCNCC2)cn1 [Fragment B02290121] | 0 | 0 | 0 | 0 |
| Brc1csc(CN2CCNCC2)c1 [Fragment B02290122] | 0 | 0 | 0 | 0 |
| Cc1c(Cl)c([N+](=O)[O-])nn1CC(=O)O [Fragment B02290123] | 0 | 0 | 1 | 0 |
| O=C(c1ccc(Br)cc1)C12CN3CN(CN(C3)C1)C2 [Fragment B02290401] | 0 | 0 | 0 | 0 |
| O=S(=O)(CCO)c1n[nH]c(Cl)n1 [Fragment B02290402] | 0 | 0 | 0 | 0 |
| COCn1nc(Br)nc1C(N)=O [Fragment B02290403] | 1 | 0 | 0 | 0 |
| COCn1nc(Br)[nH]c1=O [Fragment B02290404] | 0 | 0 | 0 | 0 |
| Brc1cnc(C2OCCO2)s1 [Fragment B02290407] | 1 | 0 | 0 | 0 |
| O=C(O)C(=O)Nc1ccc(Cl)cn1 [Fragment B02290408] | 0 | 0 | 0 | 0 |
| Cc1n[nH]c(C)c1I [Fragment B02290459] | 1 | 1 | 1 | 1 |
| O=c1[nH]cc(Cl)cc1[N+](=O)[O-] [Fragment B02290460] | 0 | 1 | 0 | 0 |
| Nc1ncc(Br)s1 [Fragment B02290461] | 0 | 0 | 0 | 0 |
| Brc1nnc2n1CCNC2 [Fragment B02290462] | 0 | 0 | 0 | 0 |
| O=C(O)c1n[nH]cc1Br [Fragment B02290463] | 0 | 0 | 0 | 0 |
| N#Cc1n[nH]cc1Br [Fragment B02290464] | 1 | 1 | 1 | 0 |
| Cn1c(Cl)cc(=O)n(C)c1=O [Fragment B02290465] | 1 | 0 | 0 | 0 |
| O=C(O)c1ccc(Cl)o1 [Fragment B02290466] | 0 | 0 | 0 | 0 |
| O=C1Nc2c(Cl)cccc2C1=O [Fragment B02290467] | 0 | 0 | 0 | 0 |

| Compound | AAK1 (STD-NMR hit flag) (AAK1 (121-471)) | CAMK1G (STD-NMR hit flag) (CAMK1G (1-320)) | IDO1 (STD-NMR hit flag) (IDO1 (1-435)) | DOT1L (STD-NMR hit flag) (DOT1L (1-416)) |
| --- | --- | --- | --- | --- |
| Clc1cnc2nn[nH]c2c1 [Fragment B02290468] | 0 | 0 | 0 | 0 |
| O=C(O)c1cc(Cl)nnc1Cl [Fragment B02290470] | 0 | 0 | 0 | 0 |
| Nc1c(Cl)ccc(O)c1Cl [Fragment B02290471] | 1 | 0 | 0 | 0 |
| Nc1ncnc(C(=O)O)c1Cl [Fragment B02290472] | 0 | 0 | 0 | 0 |
| Fc1cnccc1I [Fragment B02290473] | 1 | 1 | 0 | 0 |
| O=c1[nH]c2ccc(Cl)nc2[nH]1 [Fragment B02290474] | 1 | 0 | 0 | 0 |
| Nc1ncc(Br)cc1CO [Fragment B02290475] | 1 | 1 | 0 | 0 |
| Nc1nc(Cl)nc2[nH]cnc12 [Fragment B02290476] | 0 | 0 | 0 | 0 |
| Clc1cscn1 [Fragment B02290477] | 0 | 0 | 0 | 0 |
| CC(Cn1cc(Cl)cn1)C(=O)O (stereo not shown) [Fragment B02290481] | 0 | 0 | 0 | 0 |
| Brc1cnc2[nH]nnc2c1 [Fragment B02290482] | 0 | 0 | 0 | 0 |
| CN1CCN(C(CN)c2ccccc2Cl)CC1 (stereo not shown) [Fragment B02290483] | 0 | 0 | 0 | 0 |
| Cc1onc(N)c1I [Fragment B02290521] | 1 | 1 | 1 | 0 |
| Cc1nn(C)c(Cl)c1S(N)(=O)=O [Fragment B02290522] | 1 | 0 | 1 | 0 |
| O=C(O)c1cc(Br)c[nH]c1=O [Fragment B02290523] | 0 | 0 | 0 | 0 |
| Cn1c(=O)cc(Cl)[nH]c1=O [Fragment B02290524] | 0 | 0 | 0 | 0 |
| Cc1ccc(Cl)c(CN)c1F [Fragment B02290525] | 0 | 0 | 0 | 0 |
| O=C(O)c1c(I)ccnc1F [Fragment B02290658] | 0 | 0 | 0 | 0 |
